The target in assay [1] is T1, Aurora-B (Homo sapiens, UniProt Q96GD4).
T1 construct: 6-histidine tag; made in house; host or cells: Spodoptera frugiperda Sf21 insect cells (baculovirus)
Briefly: In vitro Aurora-B kinase inhibition test. It counts as biochemical. The following applies: recombinant Aurora-B, 33P-ATP peptide substrate filter assay, 60 minutes, room temperature; read-out: concentration giving 50% inhibition of enzyme activity. The source says: (b) In Vitro Aurora-B Kinase Inhibition Test
This assay determines the ability of a test compound to inhibit serine-threonine kinase activity. DNA encoding Aurora-B may be obtained by total gene synthesis or by cloning. This DNA may then be expressed in a suitable expression system to obtain polypeptide with serine-threonine kinase activity. In the case of Aurora-B, the coding sequence was isolated from cDNA by polymerase chain reaction (PCR) and cloned into the pFastBac system in a manner similar to that described above for Aurora-A (i.e. to direct expression of a 6-histidine tagged Aurora-B protein).
For the large scale expression of Aurora-B kinase activity, Sf21 insect cells were grown at 28° C. in TC100 medium supplemented with 10% foetal calf serum (Viralex) and 0.2% F68 Pluronic (Sigma) on a Wheaton roller rig at 3 r.p.m. When the cell density reached 1.2×10^6 cells ml^−1 they were infected with plaque-pure Aurora-B recombinant virus at a multiplicity of infection of 1 and harvested 48 hours later. All subsequent purification steps were performed at 4° C. […]

The subject of assay [2] is human tumour cell line SW620. Nature of the assay: In vitro cell proliferation assay (BrdU incorporation). It counts as cell-based. The following applies: SW-620, SW620 cells, 48 hours with compound, 2 hour BrdU labelling, read-out: active at (concentration giving 50% inhibition of BrdU incorporation). The source says:
(c) In Vitro Cell Proliferation Assay
This and other assays can be used to determine the ability of a test compound to inhibit the growth of adherent mammalian cell lines, for example the human tumour cell line SW620 (ATCC CCL-227). This assay determines the ability of at test compound to inhibit the incorporation of the thymidine analogue, 5′-bromo-2′-deoxy-uridine (BrdU) into cellular DNA. SW620 or other adherent cells were typically seeded at 1×10^5 cells per well in L-15 media (GIBCO) plus 5% foetal calf serum, 1% L-glutamine (100 μl/well) in 96 well tissue culture treated 96 well plates (Costar) and allowed to adhere overnight. […] The optical density of the wells was then determined at 690 nm wavelength using a Titertek Multiscan plate reader. […]
A general note: Uptake of a labelled nucleoside into DNA is a usual measure of proliferation.

The target of assay [3] is T2, Aurora-A (Homo sapiens, UniProt O14965).
T2 construct: 6 histidine tag with spacer region and rTEV protease cleavage site (pFastBac HTc) (N); made in house; host or cells: Spodoptera frugiperda Sf21 insect cells (baculovirus)
T2 sequence (O14965 1-403): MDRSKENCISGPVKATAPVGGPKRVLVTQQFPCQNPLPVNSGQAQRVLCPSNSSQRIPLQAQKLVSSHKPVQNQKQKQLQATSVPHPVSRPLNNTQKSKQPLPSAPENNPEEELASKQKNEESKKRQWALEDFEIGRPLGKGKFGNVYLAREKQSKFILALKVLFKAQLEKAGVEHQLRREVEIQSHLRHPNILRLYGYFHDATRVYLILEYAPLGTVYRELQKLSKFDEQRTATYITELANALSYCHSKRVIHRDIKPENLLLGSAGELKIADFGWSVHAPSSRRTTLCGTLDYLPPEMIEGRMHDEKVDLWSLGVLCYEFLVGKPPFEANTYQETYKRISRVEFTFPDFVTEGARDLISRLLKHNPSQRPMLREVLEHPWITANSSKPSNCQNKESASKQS
Briefly: In vitro Aurora-A kinase inhibition test. The format is biochemical.

This note sets out measurements from patent publication US9567358B2, “Methods of treatment using N-(3-fluorophenyl)-2-{3-[(7-{3-[ethyl(2-hydroxyethyl)amino]propoxy}-quinazolin-4-yl)amino]-1H-pyrazol-5-yl}acetamide” (AstraZeneca AB, priority 2002, dated 2017).

T1 sequence (Q96GD4 whole entry): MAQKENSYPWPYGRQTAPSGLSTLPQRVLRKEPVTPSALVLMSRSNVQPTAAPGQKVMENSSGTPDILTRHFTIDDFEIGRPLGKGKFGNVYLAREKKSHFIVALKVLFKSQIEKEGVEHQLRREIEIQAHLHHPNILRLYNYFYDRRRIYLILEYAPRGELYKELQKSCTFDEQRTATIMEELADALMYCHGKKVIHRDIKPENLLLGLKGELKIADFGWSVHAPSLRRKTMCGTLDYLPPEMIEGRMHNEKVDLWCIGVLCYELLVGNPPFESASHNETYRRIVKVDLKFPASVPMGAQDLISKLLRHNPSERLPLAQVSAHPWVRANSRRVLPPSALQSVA

For `COc1cc2c(Nc3cc(CC(=O)Nc4cccc(F)c4)[nH]n3)ncnc2cc1OCCCN1CCC[C@H]1COP(=O)(O)O` [Compound 5, {(2S)-1-[3-({4-[(5-{2-[(3-fluorophenyl)amino]-2-oxoethyl}-1H-pyrazol-3-yl)amino]-6-methoxyquinazolin-7-yl}oxy)propyl]pyrrolidin-2-yl}methyl dihydrogen phosphate], the values for the IC50 in assay [1], in assay [2] and in assay [3] were 1.6 nM, 0.1 nM and 5.5 nM, respectively.
